According to EP0437336B1, “Biophosphoryl hydrazines and their use as pesticides” (priority 1990, dated 1991):
≈ marks a conversion by molar mass, not a printed value. Read-outs that look alike come from different tables or passages of the source.

What was measured:
[1] = system: Southern Armyworm; assay: Biological Method D: Foliar Insecticidal Activity Test, Southern Armyworm test; format: in vivo, Spodoptera eridania; design: key: I = inactive at concentration listed
[2] = system: southern corn rootworm, Diabrotica undecimpunctata howardi; assay: Biological Method A: Corn Rootworm Screening Test (treated non-aggressive soil); conditions: soil concentration giving 90% mortality, 10 days at 27°C
[3] = system: Japanese beetle (Popillia japonica ) eggs; assay: Biological Method E: Turf Grub Insecticidal Activity Test; format: in vivo; conditions: soil incorporation
Description: Biological Method E: Turf Grub Insecticidal Activity Test
These will give soil concentrations of […] (1.6, 0.8, 0.4, and 0.2 pounds per acre), respectively.
Ten milliliters of test solution were incorporated into 250 ml of moistened soil (clay loam, 90% : humus soil, 10%) and allowed to air in an uncapped pint jar for about 2 hours. After airing, a small amount of seed mixture containing equal parts of redtop (Agrostis alba ) and white clover (Trifolium repens ) was incorporated into the soil. Two 50 ml quantities of soil were placed into dep 88.72 cm³ (3 ounce) ointment tin cans.
Ten Japanese beetle (Popillia japonica ) eggs were placed into the soil in each can and the can capped with its tined lid. Treatments were held for 23 days at 30 degrees Centigrade.
Upon termination, the soil was sieved to isloate the grubs. The percent mortality was determined for each concentration.

[4] = system: southern corn rootworm, Diabrotica undecimpunctata howardi; conditions: Diabrotica undecimpunctata, in Zea mays, foliar, 336 h, read-out: foliar systemic nonagressive Method B crw % control at 0.56 kg/ha (0.5 lb/acre)
[5] = system: Boll Weevil; assay: Biological Method D: Foliar Insecticidal Activity Test, boll weevil test; format: in vivo, Anthonomous grandis; design: key: I = inactive at concentration listed
[6] = system: Green Peach Aphid; assay: Biological Method D: Foliar Insecticidal Activity Test, aphid test; format: in vivo, Myzus persicae; design: key: I = inactive at concentration listed
[7] = system: Two-Spotted Spider Mite; assay: Biological Method D: Foliar Insecticidal Activity Test, mite test; format: in vivo, Tetranychus urticae; design: key to LC50 TSM: I = inactive at concentration listed; conditions: Method D foliar test; Two-Spotted Spider Mite
[8] = system: southern corn rootworm, Diabrotica undecimpunctata howardi; conditions: at-planting soil application
[9] = system: Mexican Bean Beetle; assay: Biological Method D: Foliar Insecticidal Activity Test, Mexican Bean Beetle test; format: in vivo, Epilachna varivestis; design: key to LC50 BB 96 hrs / LC50 BB 48 hrs.: I = inactive at concentration listed; conditions: Method D foliar test, Mexican Bean Beetle; for LC50: Epilachna varivestis
[10] = 23 days at 30 degrees Centigrade
[11] = 96 hrs, read-out: LC50 BB 96 hrs

| SMILES | LC50 AW 48 hrs [1] | LC50 AW 96 hrs [1] | primary nonagressive Method A crw LC90 [2] [ppm] | LC95 [3, 10] [kg/ha] | LC95 ([3]; 23 days, value in brackets) [pounds per acre] | pest or weed control at 560 g/ha [4] [%] | LC50 BW 48 hrs [5] | LC50 BW 96 hrs [5] | LC50 GPA [6] | LC50 TSM [7] | secondary aggressive Method C crw LC50 ([8]; rated 17 days post-infestation) [kg/ha] | secondary aggressive Method C crw LC50 ([8]; value in brackets) [lb/acre] | LC50 ([9]; 48 hrs, read-out: LC50 BB 48 hrs.) [µg/mL] | LC50 [9, 11] [µg/mL] | LC50 BB 48 hrs. ([9]; 48 hrs) |
| --- | --- | --- | --- | --- | --- | --- | --- | --- | --- | --- | --- | --- | --- | --- | --- |
| CCCOP(=S)(NNP(=S)(OCC)OCC(C)(C)C)OCCC (stereo not drawn) [Compound 41, N-(O,O-dipropylthiophosphoryl) N′-(O-ethyl O-neopentylthiophosphoryl) hydrazine] | I | I | 0.06 | < 0.22 | < 0.2 | 31 | I | I | I | I | 0.3 | 0.27 | 62 (≈ 153 µM) | 78 (≈ 192 µM) |  |
| CCOP(=S)(NNP(=S)(OCC)OC(C)C)OCC(C)(C)C (stereo not drawn) [Compound 46, N-(O-ethyl O-isopropylthiophosphoryl) N′-(O-ethyl O-neopentylthiophosphoryl) hydrazine] | I | I | 0.08 | < 0.22 | < 0.2 |  | I | I | I | I | 0.34 | 0.30 |  | 45 (≈ 115 µM) | I |
